# Test results reported in patent US9234025B2, “Extracellular allosteric inhibitor binding domain from a tyrosine kinase receptor” (SANOFI, priority 2009, dated 2016).
# Legend:
# [1] = target: T1, FGFR1-ECD (FGFR1^∂123/Fc) (Homo sapiens, UniProt P11362); test: scintillation proximity binding assay (SPA), 125I-FGF2 to FGFR1-ECD/Fc
# T1 construct: FGFR1-ECD, consisting of the three Ig-like domains D1-3, coupled to a Fc-fragment (FGFR1^∂123/Fc)
# Excerpt: The objective of this study was to develop low molecular weight chemical compounds that bind to the FGFR extracellular domain (ECD) and inhibit FGFR signaling. Given that it is challenging to envisage how a small compound could interact with a much larger polypeptide (i.e. FGF) via simple steric hindrance for the orthosteric site, multiple ligand binding assay formats were utilized to determine whether any identified compounds were acting orthosterically of via an allosteric mechanism. We initially developed a high-throughput scintillation proximity binding assay (SPA) to identify compounds that inhibit the binding of ^125I-FGF2 to FGFR1-ECD, consisting of the three Ig-like domains D1-3, coupled to a Fc-fragment (FGFR1^∂123/Fc).
# B9-FGFR3WT cell line = test: B9 myeloma cell proliferation, FGFR3WT; format: cell-based; details: 0.1 μM SSR; FGF1 25 ng/ml
# Experimental: Cell proliferation was analysed on exponentially growing cells that were starved for 16 hours in IMDM (Invitrogen, 31980048), 0.2% FBS, 2 mM glutamine containing medium and seeded at 4,000 cells/well in 96-well microplates. After exposure to mitogens and/or SSR for 72 hours, cell proliferation was assessed with the use of the CellTiter 96 AQueous One Solution Cell Proliferation Assay (Promega, Madison, Wis., USA) according to manufacturer's instructions.
# For studying SSR effect on FGFR3, the proliferation of B9-myeloma cells, expressing either FGFR3WT or FGFR3TD (a constitutively activated FGFR3 variant induced by the K650E mutation, even in the absence of any ligand; Truedel et al; blood 2006), was assayed by stimulation with FGF1 (25 ng/ml).
# FGFR1^∂3 = target: T2, FGFR1^∂3 (Homo sapiens, UniProt P11362); test: 1D-NMR, FGFR1 domain D3 fragment; format: binding
# T2 construct: a fragment containing only domain D3 (FGFR1^∂3)
# T2 sequence (P11362 255-357 limits assumed): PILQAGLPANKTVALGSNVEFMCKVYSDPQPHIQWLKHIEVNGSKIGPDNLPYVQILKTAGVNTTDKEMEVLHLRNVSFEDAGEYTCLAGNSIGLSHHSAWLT
# Experimental: All STD- and 1D-NMR experiments were carried out on a BRUKER three-channel DRX600 and on a BRUKER four-channel DRX800 spectrometer at the standard temperature of 298 K and were referenced to the internal standard 3-Trimethyl-2,2,3,3-tetradeuteropropionate-sodium salt (TSP). Typically, NMR samples contained 0.5 ml of protein ([…]) in 25 mM Tris/HCl, pH 8.0, 200 mM NaCl, 25 mM L-arginine, 2 mM EDTA, 0.02% azide (in 95% H2O/5% D2O). For protein ligand 1D STD NMR measurements spectra were recorded with 1 mM ligand SSR128129E (100 mM DMSO stock solution) and […] protein with weak 2s RF irradiation on separated protein methyl resonances. Water suppression was carried out using the standard Bruker WATERGATE 3-9-19 sequence. NMR data were processed using the Bruker program xwin NMR software.
# Since SSR was a multi-FGFR inhibitor, we used polypeptide fragments of the various (human) FGFR subtypes. […] We then used ECD fragments of FGFRs to map the binding site of SSR to one of the three Ig-domains. […] In fact, FGFR1^∂3 and FGFR1^∂123 give identical signals (broad line) meaning that we obtained same affinity for these proteins while FGFR1^∂12 and FGFR1^∂2 cause sharp lines (FIG. 11B).
# FGFR2^∂23 = target: T3, FGFR2^∂23 (Homo sapiens, UniProt P21802); test: isothermal titration calorimetry (ITC), FGFR2; format: binding
# T3 construct: FGFR2^∂23 (consisting of domain D2 and 3); made in house
# T3 sequence (P21802 148-366 limits assumed): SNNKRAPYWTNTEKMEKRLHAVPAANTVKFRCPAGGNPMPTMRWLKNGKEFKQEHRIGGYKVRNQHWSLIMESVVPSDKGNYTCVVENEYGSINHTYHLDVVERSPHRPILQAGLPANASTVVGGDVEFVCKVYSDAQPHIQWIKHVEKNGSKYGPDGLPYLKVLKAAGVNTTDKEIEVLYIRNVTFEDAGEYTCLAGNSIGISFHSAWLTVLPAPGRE
# Experimental: (§1) All calorimetric experiments were performed at 30° C. with a VP-ITC titration calorimeter (MicroCal Inc., Northampton, Mass.) as previously described^45. Titrations involved the addition of 10 μL aliquots of 1.25 mM SSR via a rotating stirrer-syringe to the solution cell containing 1.407 mL of the 10-20 μM interacting protein (i.e. FGFR2^∂123, FGFR2^∂23 and its described mutants and subdomains, FGFR3^∂123, FGF1, FGF2 and Follistatin (as negative control) at 4 min intervals. A constant stirring speed of 300 rpm was maintained and data were fitted to the standard noninteracting one site model supplied by MicroCal, with n fixed as 1.0. All measurements were performed in 10 mM HEPES pH7.2, 150 mM NaCl, and proteins were purified as previously described (Pellegrini et al., 2000). Mutagenesis was performed using the ‘site directed mutagenesis kit’ (Stratagene).
# FGFR4 = target: T4, FGFR4 (Homo sapiens, UniProt P22455); test: AlexaFluor488-FGF2 binding on FGFR4-transfected 300-19 cells (flow cytometry); details: SSR 300 nM; FGF2 10 ng/ml; murine pre-B 300-19 cells
# T4 construct: expressed in transfected cells; host or cells: murine pre-B 300-19 cells
# T4 sequence (P22455 22-802): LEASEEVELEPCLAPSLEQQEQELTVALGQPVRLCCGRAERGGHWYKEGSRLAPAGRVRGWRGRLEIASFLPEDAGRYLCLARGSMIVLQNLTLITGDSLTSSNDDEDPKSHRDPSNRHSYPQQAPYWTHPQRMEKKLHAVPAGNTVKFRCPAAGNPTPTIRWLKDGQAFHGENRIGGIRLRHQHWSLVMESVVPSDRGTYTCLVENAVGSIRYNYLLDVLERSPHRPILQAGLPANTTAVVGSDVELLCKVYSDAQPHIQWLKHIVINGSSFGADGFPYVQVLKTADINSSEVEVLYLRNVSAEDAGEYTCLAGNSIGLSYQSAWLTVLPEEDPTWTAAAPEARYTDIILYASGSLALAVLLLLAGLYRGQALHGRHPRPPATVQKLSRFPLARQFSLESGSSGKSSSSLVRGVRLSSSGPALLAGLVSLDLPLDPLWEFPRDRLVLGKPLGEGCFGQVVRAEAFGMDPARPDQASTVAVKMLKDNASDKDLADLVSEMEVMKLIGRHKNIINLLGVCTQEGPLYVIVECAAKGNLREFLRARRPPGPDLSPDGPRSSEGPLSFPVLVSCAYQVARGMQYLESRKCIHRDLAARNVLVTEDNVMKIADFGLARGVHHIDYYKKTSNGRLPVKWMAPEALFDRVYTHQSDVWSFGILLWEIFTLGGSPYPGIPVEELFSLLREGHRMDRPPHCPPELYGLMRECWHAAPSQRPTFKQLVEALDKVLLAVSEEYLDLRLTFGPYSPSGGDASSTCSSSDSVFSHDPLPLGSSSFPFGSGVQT
# Experimental: FGF2 was labeled with Alexa Fluor 488 C5-maleimide (Invitrogen, A10254) following purchaser recommendations.
# This AF488-FGF2 was used at 10 ng/ml in binding experiments on murine pre-B 300-19 cells transfected with FGFR1 or FGFR4 constructs in pEF6-V5/His Topo plasmids (Invitrogen). SSR (300 nM final) was pre-incubating 20 min with cells in RPMI 1640 (Invitrogen, 32404-014) with 10% FCS (Hyclone, SH30070.03), 2 mM glutamine, MEM non-essential amino-acid 1× (Gibco, 11140-035), MEM sodium pyruvate 1× (Gibco, 11360-039) and […] monothioglycerol (Sigma, M6145) at 4° C. under 150 rpm agitation. Then, FGF2 (10 ng/ml final) is added for 30 min and binding is measured using a FACS Calibur flow cytometer (Beckton Dickinson). Fluorescence median for each condition is also analysed.
# FGFR2^∂23-Y328D = FGFR2^∂23-Y328D (Homo sapiens, UniProt P21802, Y328D); test: ITC, FGFR2 Y328D mutant; format: binding; parameters: FGFR2^∂23 (consisting of domain D2 and 3); made in house
# FGFR2^∂23-Y328D, sequence (P21802 148-366 Y328D limits assumed): as the sequence (P21802 148-366 limits assumed) above, with Y181D counted along it
# Experimental: as §1
# We next explored whether SSR bound to amino acid residues that form part of the orthosteric site in D3 or to an alternative allosteric site. Initially, we used the molecular docking algorithms of the software packages MOLEGRO, Autodock and YASARA and available crystallographic data. […] We also analyzed the FTIR spectrum of the aforementioned mutated FGFR2 fragments.
# T1 sequence (P11362 22-376 limits assumed): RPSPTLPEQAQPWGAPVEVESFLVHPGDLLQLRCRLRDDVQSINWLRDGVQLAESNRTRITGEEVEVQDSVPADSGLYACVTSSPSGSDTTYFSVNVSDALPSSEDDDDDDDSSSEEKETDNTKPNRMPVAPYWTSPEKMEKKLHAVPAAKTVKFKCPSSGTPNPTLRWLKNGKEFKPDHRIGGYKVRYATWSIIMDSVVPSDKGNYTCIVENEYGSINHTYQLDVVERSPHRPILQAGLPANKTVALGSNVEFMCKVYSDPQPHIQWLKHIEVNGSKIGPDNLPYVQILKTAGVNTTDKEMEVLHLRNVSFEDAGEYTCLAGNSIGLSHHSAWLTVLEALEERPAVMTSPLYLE
structure (smiles),measurement,setting,value
COc1c(C)c(C(=O)c2ccc(N)c(C(=O)[O-])c2)n2ccccc12.[Na+] [SSR],inhibition of ^125I-FGF2 binding to FGFR1-ECD,[1],inhibited ^125I-FGF2 binding
same,FGF1-induced proliferation of B9-FGFR3WT cells,B9-FGFR3WT cell line,inhibited
same,binding to FGFR1 domain D3 fragment,FGFR1^∂3,identified a binding site for SSR
same,binding to FGFR2,FGFR2^∂23,bound
same,competition with AlexaFluor488-labelled FGF2 binding to FGFR4,FGFR4,not able to compete this binding
same,binding to FGFR2^∂23-Y328D,FGFR2^∂23-Y328D,failed to bind
